In the supplement of paper PMC11451515:

Key:
Conditions in all cases: 48 h
NOMO1 [1] = assay: AUC of viability dose-response curve (% viability x log10 dose units); higher = less sensitive
Summary of the method: (§1)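 Leukemia cells adapted to each medium were seeded at 500 or 1000 cells/well in 1536-well plates and dosed with library compounds in DMSO at 11 threefold doses from 47 μM to 0.79 nM for 48 h at 37°C. CellTiter-Glo One luminescence was normalised per plate to DMSO and cell-free wells, then fitted with a four-parameter log-logistic model over log10 doses. Area under the curve was taken from this fit by the trapezoidal rule, with curves above full viability scaled and curves failing quality control removed.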

SEM cells [2] = assay: as above
Summary of the method: as §1

P12-Ichikawa [3] = assay: as above
Summary of the method: as §1

NOMO1 [4] = assay: cell viability relative to DMSO control; higher = less cytotoxic
Summary of the method: (§2)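 Leukemia cells (NOMO1 or SEM, 500 cells/well; P12-Ichikawa, 1000 cells/well) were seeded in 5 μl in 1536-well plates after at least four passages of adaptation to each medium. They received library compounds in DMSO by pin dosing, 11 threefold points from 47 μM to 0.79 nM. Luminescence with CellTiter-Glo One was read after 48 h at 37°C. Viability is stated per plate relative to DMSO wells, with cell-free wells as background.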

SEM cells [5] = assay: as above
Summary of the method: as §2

P12-Ichikawa [6] = assay: as above
Summary of the method: as §2

NC\1=N\C(=O)N(\C=N1)[C@H]2C[C@H](O)[C@@H](CO)O2
AUC of viability dose-response curve
Conditions | NOMO1 [1] | P12-Ichikawa [3] | SEM cells [2]
HPLM + 10% dialyzed FBS | 375 | 382 | 362
RPMI 5 mM glucose + 10% FBS | 402 | 368 | 327
RPMI 5 mM glucose + 10% dialyzed FBS | 417 | 378 | 309

cell viability [%]
Conditions | NOMO1 [4] | P12-Ichikawa [6] | SEM cells [5]
HPLM + 10% dialyzed FBS, 0.000781 µM | 110 | 101 | 57.8
HPLM + 10% dialyzed FBS, 0.00234 µM | 138 | 103 | 100
HPLM + 10% dialyzed FBS, 0.00702 µM | 101 | 106 | 94.7
HPLM + 10% dialyzed FBS, 0.0211 µM | 115 | 108 | 97.2
HPLM + 10% dialyzed FBS, 0.0632 µM | 101 | 115 | 118
HPLM + 10% dialyzed FBS, 0.19 µM | 107 | 108 | 101
HPLM + 10% dialyzed FBS, 0.569 µM | 91.4 | 101 | 89.8
HPLM + 10% dialyzed FBS, 1.71 µM | 82.4 | 74.1 | 71.3
HPLM + 10% dialyzed FBS, 5.12 µM | 60.2 | 42 | 41
HPLM + 10% dialyzed FBS, 15.4 µM | 46.5 | 34.9 | 29.5
HPLM + 10% dialyzed FBS, 46.1 µM | 43.6 | 32.3 | 16.5
RPMI 5 mM glucose + 10% FBS, 0.000781 µM | 91.8 | 105 | 54.1
RPMI 5 mM glucose + 10% FBS, 0.00234 µM | 106 | 110 | 91.3
RPMI 5 mM glucose + 10% FBS, 0.00702 µM | 89.6 | 112 | 86
RPMI 5 mM glucose + 10% FBS, 0.0211 µM | 92.8 | 118 | 92.9
RPMI 5 mM glucose + 10% FBS, 0.0632 µM | 93.4 | 106 | 107
RPMI 5 mM glucose + 10% FBS, 0.19 µM | 93.7 | 103 | 92
RPMI 5 mM glucose + 10% FBS, 0.569 µM | 98.9 | 97.2 | 81.8
RPMI 5 mM glucose + 10% FBS, 1.71 µM | 85.4 | 70 | 63.8
RPMI 5 mM glucose + 10% FBS, 5.12 µM | 71.1 | 37.6 | 32.2
RPMI 5 mM glucose + 10% FBS, 15.4 µM | 51.8 | 26.5 | 22.2
RPMI 5 mM glucose + 10% FBS, 46.1 µM | 31.5 | 27.5 | 12.1
RPMI 5 mM glucose + 10% dialyzed FBS, 0.000781 µM | 109 | 107 | 55.1
RPMI 5 mM glucose + 10% dialyzed FBS, 0.00234 µM | 122 | 109 | 99.4
RPMI 5 mM glucose + 10% dialyzed FBS, 0.00702 µM | 107 | 103 | 81
RPMI 5 mM glucose + 10% dialyzed FBS, 0.0211 µM | 112 | 106 | 84.3
RPMI 5 mM glucose + 10% dialyzed FBS, 0.0632 µM | 98.6 | 105 | 91.4
RPMI 5 mM glucose + 10% dialyzed FBS, 0.19 µM | 109 | 107 | 93.3
RPMI 5 mM glucose + 10% dialyzed FBS, 0.569 µM | 114 | 102 | 67.5
RPMI 5 mM glucose + 10% dialyzed FBS, 1.71 µM | 96.7 | 72.5 | 49.1
RPMI 5 mM glucose + 10% dialyzed FBS, 5.12 µM | 76.5 | 37.2 | 32
RPMI 5 mM glucose + 10% dialyzed FBS, 15.4 µM | 65.9 | 30.3 | 27.5
RPMI 5 mM glucose + 10% dialyzed FBS, 46.1 µM | 36.1 | 31.4 | 21.2

CC(C)[C@H](CO)Nc1nc(Nc2ccc(C(=O)O)c(Cl)c2)c2ncn(C(C)C)c2n1
AUC of viability dose-response curve
Conditions | NOMO1 [1] | P12-Ichikawa [3] | SEM cells [2]
HPLM + 10% dialyzed FBS | 428 | 432 | 428
RPMI 5 mM glucose + 10% FBS | 445 | 414 | 412
RPMI 5 mM glucose + 10% dialyzed FBS | 462 | 425 | 462

cell viability [%]
Conditions | NOMO1 [4] | P12-Ichikawa [6] | SEM cells [5]
HPLM + 10% dialyzed FBS, 0.000781 µM | 116 | 119 | 113
HPLM + 10% dialyzed FBS, 0.00234 µM | 126 | 120 | 104
HPLM + 10% dialyzed FBS, 0.00702 µM | 122 | 116 | 103
HPLM + 10% dialyzed FBS, 0.0211 µM | 132 | 121 | 112
HPLM + 10% dialyzed FBS, 0.0632 µM | 128 | 119 | 126
HPLM + 10% dialyzed FBS, 0.19 µM | 118 | 115 | 115
HPLM + 10% dialyzed FBS, 0.569 µM | 109 | 96.1 | 97.6
HPLM + 10% dialyzed FBS, 1.71 µM | 108 | 103 | 73.6
HPLM + 10% dialyzed FBS, 5.12 µM | 79.4 | 87.1 | 99.2
HPLM + 10% dialyzed FBS, 15.4 µM | 107 | 96.3 | 92.2
HPLM + 10% dialyzed FBS, 46.1 µM | 29.6 | 92.9 | 54.2
RPMI 5 mM glucose + 10% FBS, 0.000781 µM | 119 | 111 | 89.7
RPMI 5 mM glucose + 10% FBS, 0.00234 µM | 116 | 124 | 128
RPMI 5 mM glucose + 10% FBS, 0.00702 µM | 118 | 117 | 114
RPMI 5 mM glucose + 10% FBS, 0.0211 µM | 128 | 134 | 95.2
RPMI 5 mM glucose + 10% FBS, 0.0632 µM | 134 | 127 | 106
RPMI 5 mM glucose + 10% FBS, 0.19 µM | 131 | 130 | 102
RPMI 5 mM glucose + 10% FBS, 0.569 µM | 131 | 95.7 | 86.6
RPMI 5 mM glucose + 10% FBS, 1.71 µM | 115 | 88.4 | 83.2
RPMI 5 mM glucose + 10% FBS, 5.12 µM | 87.3 | 89.2 | 75.5
RPMI 5 mM glucose + 10% FBS, 15.4 µM | 111 | 93 | 91.7
RPMI 5 mM glucose + 10% FBS, 46.1 µM | 36.1 | 69.9 | 45
RPMI 5 mM glucose + 10% dialyzed FBS, 0.000781 µM | 122 | 119 | 102
RPMI 5 mM glucose + 10% dialyzed FBS, 0.00234 µM | 125 | 122 | 120
RPMI 5 mM glucose + 10% dialyzed FBS, 0.00702 µM | 123 | 130 | 97.3
RPMI 5 mM glucose + 10% dialyzed FBS, 0.0211 µM | 137 | 111 | 107
RPMI 5 mM glucose + 10% dialyzed FBS, 0.0632 µM | 124 | 120 | 116
RPMI 5 mM glucose + 10% dialyzed FBS, 0.19 µM | 140 | 129 | 107
RPMI 5 mM glucose + 10% dialyzed FBS, 0.569 µM | 127 | 102 | 114
RPMI 5 mM glucose + 10% dialyzed FBS, 1.71 µM | 122 | 94 | 79.1
RPMI 5 mM glucose + 10% dialyzed FBS, 5.12 µM | 90.7 | 87.1 | 109
RPMI 5 mM glucose + 10% dialyzed FBS, 15.4 µM | 137 | 102 | 95.5
RPMI 5 mM glucose + 10% dialyzed FBS, 46.1 µM | 44.1 | 73.7 | 57.8

Cc1ccc(F)c(NC(=O)Nc2ccc(-c3cccc4[nH]nc(N)c34)cc2)c1
AUC of viability dose-response curve
Conditions | NOMO1 [1] | P12-Ichikawa [3] | SEM cells [2]
HPLM + 10% dialyzed FBS | 464 | 470 | 314
RPMI 5 mM glucose + 10% FBS | 472 | 472 | 256
RPMI 5 mM glucose + 10% dialyzed FBS | 471 | 470 | 296

cell viability [%]
Conditions | NOMO1 [4] | P12-Ichikawa [6] | SEM cells [5]
HPLM + 10% dialyzed FBS, 0.000781 µM | 91.4 | 102 | 91.7
HPLM + 10% dialyzed FBS, 0.00234 µM | 111 | 113 | 92.7
HPLM + 10% dialyzed FBS, 0.00702 µM | 118 | 107 | 86.3
HPLM + 10% dialyzed FBS, 0.0211 µM | 125 | 112 | 76.2
HPLM + 10% dialyzed FBS, 0.0632 µM | 115 | 112 | 59.5
HPLM + 10% dialyzed FBS, 0.19 µM | 111 | 115 | 56.7
HPLM + 10% dialyzed FBS, 0.569 µM | 110 | 115 | 55.1
HPLM + 10% dialyzed FBS, 1.71 µM | 110 | 120 | 62.9
HPLM + 10% dialyzed FBS, 5.12 µM | 117 | 116 | 64.9
HPLM + 10% dialyzed FBS, 15.4 µM | 93.8 | 111 | 64.2
HPLM + 10% dialyzed FBS, 46.1 µM | 86.6 | 81.5 | 14.4
RPMI 5 mM glucose + 10% FBS, 0.000781 µM | 99.6 | 112 | 73.4
RPMI 5 mM glucose + 10% FBS, 0.00234 µM | 125 | 113 | 84.4
RPMI 5 mM glucose + 10% FBS, 0.00702 µM | 121 | 113 | 80.3
RPMI 5 mM glucose + 10% FBS, 0.0211 µM | 108 | 112 | 69.9
RPMI 5 mM glucose + 10% FBS, 0.0632 µM | 123 | 118 | 49.7
RPMI 5 mM glucose + 10% FBS, 0.19 µM | 118 | 126 | 48.4
RPMI 5 mM glucose + 10% FBS, 0.569 µM | 113 | 108 | 41.7
RPMI 5 mM glucose + 10% FBS, 1.71 µM | 115 | 126 | 56
RPMI 5 mM glucose + 10% FBS, 5.12 µM | 118 | 120 | 48.8
RPMI 5 mM glucose + 10% FBS, 15.4 µM | 114 | 132 | 29.9
RPMI 5 mM glucose + 10% FBS, 46.1 µM | 105 | 95.3 | 1.63
RPMI 5 mM glucose + 10% dialyzed FBS, 0.000781 µM | 106 | 105 | 87.5
RPMI 5 mM glucose + 10% dialyzed FBS, 0.00234 µM | 112 | 122 | 91.3
RPMI 5 mM glucose + 10% dialyzed FBS, 0.00702 µM | 108 | 123 | 82.1
RPMI 5 mM glucose + 10% dialyzed FBS, 0.0211 µM | 123 | 122 | 71.1
RPMI 5 mM glucose + 10% dialyzed FBS, 0.0632 µM | 116 | 127 | 65.8
RPMI 5 mM glucose + 10% dialyzed FBS, 0.19 µM | 105 | 127 | 48.7
RPMI 5 mM glucose + 10% dialyzed FBS, 0.569 µM | 120 | 97.2 | 60.6
RPMI 5 mM glucose + 10% dialyzed FBS, 1.71 µM | 117 | 132 | 61.7
RPMI 5 mM glucose + 10% dialyzed FBS, 5.12 µM | 104 | 131 | 57.6
RPMI 5 mM glucose + 10% dialyzed FBS, 15.4 µM | 111 | 116 | 43.5
RPMI 5 mM glucose + 10% dialyzed FBS, 46.1 µM | 87.8 | 92.6 | 8.13
